Values quoted from earlier work in patent publication US20020032245A1, “Resinate composition” (priority 2000, published 2002).

COc1ccc2c(c1)c(CC(=O)O)c(C)n2C(=O)c1ccc(Cl)cc1 [indomethacin]
solubility of indomethacin in water: 14 ppm
